Laboratory results from PubChem BioAssay (NCI).
Where “and” joins values, the source holds several entries; their conditions need not be identical. Equal entries are not always repeated.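 Cultured in 96-well plates, cells were exposed to test compound for 48 hours across five concentrations. At the GI50, growth is halved. TGI: concentration producing complete growth inhibition.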

How the values were obtained:
Experiment in all cases: NCI tumour cell line growth inhibition, 48 h
HS 578T breast = test system: HS 578T breast
A549 NSCLC = test system: A549 NSCLC
TK-10 renal = test system: TK-10 renal
OVCAR-4 ovarian = test system: OVCAR-4 ovarian
SF-268 CNS = test system: SF-268 CNS
BT-549 breast = test system: BT-549 breast
MOLT-4 leukemia = test system: MOLT-4 leukemia
U251 CNS = test system: U251 CNS
ACHN renal = test system: ACHN renal
MCF7 breast = test system: MCF7 breast

SMILES | GI50 (HS 578T breast) | TGI (HS 578T breast) | GI50 (A549 NSCLC) | TGI (A549 NSCLC) | GI50 (TK-10 renal) | TGI (TK-10 renal) | GI50 (OVCAR-4 ovarian) | TGI (OVCAR-4 ovarian) | GI50 (SF-268 CNS) | TGI (SF-268 CNS) | GI50 (BT-549 breast) | TGI (BT-549 breast) | GI50 (MOLT-4 leukemia) | TGI (MOLT-4 leukemia) | GI50 (U251 CNS) | TGI (U251 CNS) | GI50 (ACHN renal) | TGI (ACHN renal) | TGI (MCF7 breast) | GI50 (MCF7 breast) [µM]
Cn1ncc(Cl)c1-c1cc(C(=O)N[C@H](CN)Cc2cccc(F)c2)sc1Cl | 0.2 µM and 0.339 µM | 2.98 µM and 3.27 µM | 0.946 µM and 2.32 µM | > 10 µM and 16 µM | 0.531 µM and 1.73 µM | 5.76 µM and 14.3 µM | 4.9 µM and 6.33 µM | > 10 µM and 19.3 µM | 1.72 µM and 3.64 µM | > 9.54 µM and 17.1 µM | 0.518 µM and 1.33 µM | 3.35 µM and 7.5 µM | 0.196 µM and 0.123 µM | 3.13 µM and 3.51 µM | 0.346 µM and 0.742 µM | > 4.58 µM and 12.8 µM | 2.57 µM and 2.76 µM | > 10 µM and 15.4 µM | 2.6 µM and 11.4 µM | –
CC1=C(C#N)C23C(=O)N(c4ccccc4)C(=O)C2=C(O)C=CC3(O)N1Cc1ccc(Cl)cc1Cl (centres undefined) | 3.13 µM | 11.6 µM | 12.2 µM | 28.5 µM | 2.79 µM | 11.9 µM | 6.36 µM | 19.6 µM | 3.74 µM | 16.4 µM | 1.46 µM | 3.17 µM | 2.92 µM | 7.55 µM | 2.86 µM | 11.3 µM | 12.6 µM | 25.2 µM | 13.3 µM | 2.12
COC(=O)/C=C1/SC(=Nc2cccc(Cl)c2)N(CCc2c[nH]c3ccc(O)cc23)C1=O | 2.68 µM | 8.99 µM | 2.65 µM | 6.95 µM | 2.29 µM | 5.65 µM | 1.4 µM | 4.44 µM | 1.76 µM | 4.47 µM | 1.24 µM | 3.05 µM | 1 µM | 5.1 µM | 1.76 µM | 3.51 µM | 1.73 µM | 3.33 µM | 4.73 µM | 1.69
O=C(O)c1cccc(S(=O)(=O)NCCO)c1 | – | > 100 µM | – | > 100 µM | – | > 100 µM | – | > 100 µM | – | > 100 µM | – | > 100 µM | – | > 100 µM | – | > 100 µM | – | > 100 µM | > 100 µM | –
COc1ccc(Nc2nc(NCCNc3ccnc4cc(Cl)ccc34)nc(N3CCOCC3)n2)cc1 | 3.91 µM | 24.1 µM | 4.87 µM | 20.3 µM | 7.64 µM | 20.6 µM | 9 µM | 24.5 µM | 5.02 µM | 19.5 µM | 9.92 µM | 22.1 µM | 2.01 µM | 11.2 µM | 3.1 µM | 15.4 µM | 4.77 µM | 18.1 µM | 12.8 µM | 2.86
NC(=S)N/N=C/c1ccc(OC(=O)COc2cc(Cl)c(Cl)cc2Cl)cn1 | 51 µM | > 100 µM | 24.4 µM | > 100 µM | 41.9 µM | > 100 µM | 4.83 µM | > 100 µM | 3.52 µM | 43.6 µM | 3.92 µM | > 100 µM | 4.53 µM | > 100 µM | 3.52 µM | > 100 µM | 3.03 µM | > 100 µM | > 100 µM | 2.09
Cc1ccc(OCC2CO2)c(Br)c1 (centres undefined) | – | > 100 µM | – | 62.2 µM | – | > 100 µM | – | 29.4 µM | – | 42.6 µM | – | 0.879 µM | – | 70.4 µM | – | 32.6 µM | – | 21.2 µM | 34.9 µM | –
COc1cc(-c2nn(-c3cccc(NC(=O)Nc4ccc(Cl)c(C(F)(F)F)c4)c3)cc2-c2ccncc2)ccc1Cl | 1.32 µM | 18.3 µM | 1.02 µM | 16.7 µM | 1.51 µM | 13.5 µM | 1.29 µM | 25.6 µM | 1.46 µM | 9.14 µM | 2.36 µM | 10.2 µM | 1.02 µM | 7.96 µM | 0.985 µM | 4.18 µM | 1.1 µM | 15.6 µM | > 32.5 µM | 0.919
CC1=C([Te]c2ccccc2)C(=O)c2ccccc2C1=O | 0.303 µM | 2.46 µM | 0.298 µM | 1.23 µM | 1.71 µM | 4.05 µM | 1.63 µM | 3.53 µM | 0.383 µM | 1.64 µM | 0.232 µM | 0.842 µM | 0.287 µM | 1.3 µM | 0.331 µM | 1.56 µM | 0.454 µM | 1.61 µM | 0.943 µM | 0.249
